Results published in patent publication US9308282B2, “[F-18]-labelled L-glutamic acid and L-glutamine derivatives (I), their use and processes for their preparation” (PIRAMAL IMAGING SA, priority 2008, dated 2016).

What was measured:
H460 tumour = experiment: PET with rats bearing H460 tumours; assay type: in vivo; settings: 80 min after i.v. 18 MBq, 20 min data acquisition
A549 tumour = experiment: PET/CT imaging in mice bearing A549 tumours; assay type: in vivo; settings: 60 min after i.v. 10 MBq, 20 min data acquisition
[1] = test system: A549 and H460 tumour cells; experiment: cell uptake of S-configured, F-18-labelled glutamic acid derivatives
Excerpt: Following labelling with F-18, (2S,4S)-2-amino-4-(3-[F-18]fluoropropyl)pentanedioic acid was examined in cell experiments with A549 and H460 tumour cells (both human non-small-cell bronchial carcinoma cell lines).

SMILES: N[C@@H](C[C@H](CCC[18F])C(=O)O)C(=O)O
- PET image analysis: uptake into the H460 tumour (H460 tumour): high uptake
- PET/CT image analysis: uptake into the A549 tumour (A549 tumour): high uptake
- cellular uptake over time [1]: time-dependent cellular uptake
